Experimental findings from article PMC11198769, “Enhancement of transcription efficiency by TAR-Tat system increases the functional expression of human olfactory receptors” (PLOS ONE, 2024) are described below.

Holding throughout (experiment): Comprehensive analysis (screening) of hORs against n-hexanal
Format in all cases: cell-based

The target in one assay is T1, OR10H3 (Homo sapiens, UniProt O60404).
T1 construct: Lucy tag (N); expressed in transfected cells; host or cells: Flp-In T-REx-293 cells stably expressing RTP1S, Gαolf and Ric8-b
T1 sequence (O60404 1-316): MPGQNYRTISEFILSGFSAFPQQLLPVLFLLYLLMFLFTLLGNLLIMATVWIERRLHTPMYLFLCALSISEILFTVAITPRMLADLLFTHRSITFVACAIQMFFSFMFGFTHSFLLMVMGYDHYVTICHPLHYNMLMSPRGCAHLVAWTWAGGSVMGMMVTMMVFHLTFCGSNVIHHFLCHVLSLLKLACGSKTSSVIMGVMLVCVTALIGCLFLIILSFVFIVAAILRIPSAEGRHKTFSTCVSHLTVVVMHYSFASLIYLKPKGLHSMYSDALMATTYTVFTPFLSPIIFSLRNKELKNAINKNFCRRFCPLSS
Particulars: OR10H3, 500 μM n-hexanal, with the TAR-Tat system (hOR/pHEK), n = 1. How it is done: (§1) Transfection was performed as described in the “hOR assay,” but 12.5 ng of 379 hOR plasmids (hOR/pBApo and hOR/pHEK) was transfected with the 12.5 ng pGlosensor^TM-22F cAMP biosensor plasmid (Promega) in 384 plates per well. After loading the GloSensor cAMP substrate and preincubation, the assay buffer was added (30 μL/well). After 10 min of equilibration, luminescence was measured (L0). Then, 50 mM n-hexanal, which was diluted with 10% DMSO/assay buffer, was added (4.7 μL/well). After 9 min, luminescence was measured (L9min). All the L9min values were subtracted by the L0 value (ΔL).

In a further assay the target is T2, OR5M3 (Homo sapiens, UniProt Q8NGP4).
T2 construct: Lucy tag (N); FLAG (N); Rho tag (N); expressed in transfected cells; host or cells: Flp-In T-REx-293 cells stably expressing RTP1S, Gαolf and Ric8-b
T2 sequence (Q8NGP4 1-307): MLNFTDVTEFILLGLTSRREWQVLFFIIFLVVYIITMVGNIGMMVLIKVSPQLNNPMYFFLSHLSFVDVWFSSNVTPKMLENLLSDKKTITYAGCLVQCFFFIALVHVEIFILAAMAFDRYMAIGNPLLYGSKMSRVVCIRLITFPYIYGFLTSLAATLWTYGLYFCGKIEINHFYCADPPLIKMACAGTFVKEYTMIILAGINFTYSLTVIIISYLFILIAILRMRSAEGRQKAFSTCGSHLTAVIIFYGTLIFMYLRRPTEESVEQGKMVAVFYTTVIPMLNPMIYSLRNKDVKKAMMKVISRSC
The note with it: OR5M3, 500 μM n-hexanal, with the TAR-Tat system (hOR/pHEK), n = 1. Here is the method:
as §1

A further assay addresses T3, OR56B1 (Homo sapiens, UniProt Q8NGI3).
T3 construct: Lucy tag (N); expressed in transfected cells; host or cells: Flp-In T-REx-293 cells stably expressing RTP1S, Gαolf and Ric8-b
T3 sequence (Q8NGI3 1-324): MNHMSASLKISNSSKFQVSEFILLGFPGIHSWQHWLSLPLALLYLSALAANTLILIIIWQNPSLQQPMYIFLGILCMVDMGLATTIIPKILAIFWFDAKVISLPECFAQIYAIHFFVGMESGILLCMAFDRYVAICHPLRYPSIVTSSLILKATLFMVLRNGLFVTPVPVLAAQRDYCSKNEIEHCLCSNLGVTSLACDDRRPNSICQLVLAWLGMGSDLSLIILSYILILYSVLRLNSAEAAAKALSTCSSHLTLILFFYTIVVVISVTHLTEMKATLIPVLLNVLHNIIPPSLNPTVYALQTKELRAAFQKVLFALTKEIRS
Particulars: OR56B1, 500 μM n-hexanal, with the TAR-Tat system (hOR/pHEK), n = 1. Here is the method:
as §1

The target in the next assay is T4, OR52N4 (Homo sapiens, UniProt Q8NGI2).
T4 construct: Lucy tag (N); expressed in transfected cells; host or cells: Flp-In T-REx-293 cells stably expressing RTP1S, Gαolf and Ric8-b
T4 sequence (Q8NGI2 1-321): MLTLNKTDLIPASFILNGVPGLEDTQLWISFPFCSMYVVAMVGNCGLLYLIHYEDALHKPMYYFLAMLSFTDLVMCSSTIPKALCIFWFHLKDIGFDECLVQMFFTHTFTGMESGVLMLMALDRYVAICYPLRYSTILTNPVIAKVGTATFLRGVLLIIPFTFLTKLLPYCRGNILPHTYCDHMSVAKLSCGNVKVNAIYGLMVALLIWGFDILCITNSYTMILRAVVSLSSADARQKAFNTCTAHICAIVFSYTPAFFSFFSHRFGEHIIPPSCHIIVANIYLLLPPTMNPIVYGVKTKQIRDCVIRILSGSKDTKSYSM
The note with it: OR52N4, 500 μM n-hexanal, with the TAR-Tat system (hOR/pHEK), n = 1. Here is the method: as §1

Another assay concerns the target T5, OR8B4 (Homo sapiens, UniProt Q96RC9).
T5 construct: Lucy tag (N); FLAG (N); Rho tag (N); expressed in transfected cells; host or cells: Flp-In T-REx-293 cells stably expressing RTP1S, Gαolf and Ric8-b
T5 sequence (Q96RC9 1-309): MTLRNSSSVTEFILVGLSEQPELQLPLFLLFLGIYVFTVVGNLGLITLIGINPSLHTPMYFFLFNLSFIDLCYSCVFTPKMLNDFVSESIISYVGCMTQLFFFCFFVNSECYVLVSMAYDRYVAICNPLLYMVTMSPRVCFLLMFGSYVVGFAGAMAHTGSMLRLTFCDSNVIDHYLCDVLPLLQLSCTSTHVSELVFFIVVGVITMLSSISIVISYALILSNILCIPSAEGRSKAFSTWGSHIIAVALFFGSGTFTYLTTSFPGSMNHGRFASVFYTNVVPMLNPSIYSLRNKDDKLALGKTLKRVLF
The note with it: OR8B4, 500 μM n-hexanal, with the TAR-Tat system (hOR/pHEK), n = 1. How it is done:
as §1

A further assay addresses T6, OR2M3 (Homo sapiens, UniProt Q8NG83).
T6 construct: Lucy tag (N); expressed in transfected cells; host or cells: Flp-In T-REx-293 cells stably expressing RTP1S, Gαolf and Ric8-b
T6 sequence (Q8NG83 1-312): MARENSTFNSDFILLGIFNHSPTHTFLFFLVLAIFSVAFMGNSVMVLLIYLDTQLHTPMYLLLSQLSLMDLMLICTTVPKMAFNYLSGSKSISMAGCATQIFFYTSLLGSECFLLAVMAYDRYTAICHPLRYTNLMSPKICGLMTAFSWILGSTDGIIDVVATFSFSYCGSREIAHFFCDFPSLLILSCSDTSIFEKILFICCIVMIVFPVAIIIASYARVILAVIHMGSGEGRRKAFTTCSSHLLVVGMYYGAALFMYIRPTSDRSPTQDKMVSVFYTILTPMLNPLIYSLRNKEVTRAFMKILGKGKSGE
Particulars: OR2M3, 500 μM n-hexanal, with the TAR-Tat system (hOR/pHEK), n = 1. Here is the method: as §1

Some results are limits rather than exact numbers.

Turning to `CCCCCC=O` [n-hexanal], the “response value (ΔL)” value at OR10H3 is reported as more than 500; at OR5M3, more than 500; on OR56B1 it was more than 500; at OR52N4, more than 500; on OR8B4 it was more than 500; at OR2M3 it was −620.
